{"source": "patent US12285406B1", "about": "“Method of treating cancer with a selenide” (priority 2024, dated 2025)", "key": {"BCL-2": {"system": "BCL-2", "test": "Protein expression level in MDA-MB-468 cells: BCL-2", "type": "cell-based, human", "details": "compared to the control (untreated) cells"}, "[1]": {"system": "human oral epithelial normal cell line (OEC)", "test": "Growth inhibition of normal cell line OEC", "type": "cell-based"}, "IL-6": {"system": "IL-6", "test": "Protein expression level in MDA-MB-468 cells: IL-6", "type": "cell-based, human", "details": "compared to the control (untreated) cells"}, "[2]": {"system": "pharynx squamous carcinoma (FaDu)", "test": "Antitumor activity (growth inhibition, cytotoxic IC50) against FaDu", "type": "cell-based", "details": "Homo sapiens; for inhibition at 100 µg/mL: 100 μg/mL, read-out: growth inhibition percentage"}, "Caspase 6": {"system": "Caspase 6", "test": "Protein expression level in MDA-MB-468 cells: Caspase 6", "type": "cell-based, human", "details": "in comparison to the control (untreated) cells"}, "[3]": {"system": "triple-negative breast cancer (MDA-MB-468)", "test": "Antitumor activity (growth inhibition, cytotoxic IC50) against MDA-MB-468", "type": "cell-based", "details": "Homo sapiens; for inhibition at 100 µg/mL: 100 μg/mL, read-out: growth inhibition percentage"}, "Caspase 3": {"system": "Caspase 3", "test": "Protein expression level in MDA-MB-468 cells: Caspase 3", "type": "cell-based, human", "details": "in comparison to the control (untreated) cells"}, "MMP2": {"system": "MMP2", "test": "Protein expression level in MDA-MB-468 cells: MMP2", "type": "cell-based, human", "details": "compared to the control (untreated) cells"}, "BAX": {"system": "BAX", "test": "Protein expression level in MDA-MB-468 cells: BAX", "type": "cell-based, human", "details": "in comparison to the control (untreated) cells"}, "Caspase 9": {"system": "Caspase 9", "test": "Protein expression level in MDA-MB-468 cells: Caspase 9", "type": "cell-based, human", "details": "in comparison to the control (untreated) cells"}, "cervical cancer (HeLa)": {"system": "cervical cancer (HeLa)", "test": "Antitumor activity (growth inhibition, cytotoxic IC50) against HeLa", "type": "cell-based", "details": "Homo sapiens; for inhibition at 100 µg/mL: 100 μg/mL, read-out: growth inhibition percentage"}, "[4]": {"system": "human non-small cell lung cancer (A549)", "test": "Antitumor activity (growth inhibition, cytotoxic IC50) against A549", "type": "cell-based", "details": "for inhibition at 100 µg/mL: 100 μg/mL, read-out: growth inhibition percentage"}, "Caspase 8": {"system": "Caspase 8", "test": "Protein expression level in MDA-MB-468 cells: Caspase 8", "type": "cell-based, human", "details": "in comparison to the control (untreated) cells"}, "MMP9": {"system": "MMP9", "test": "Protein expression level in MDA-MB-468 cells: MMP9", "type": "cell-based, human", "details": "compared to the control (untreated) cells"}, "[5]": {"system": "colorectal carcinoma (HCT116)", "test": "Antitumor activity (growth inhibition) against HCT116", "type": "cell-based", "details": "Homo sapiens, HCT-116, 100 μg/mL, read-out: growth inhibition percentage"}, "IL-1β": {"system": "IL-1β", "test": "Protein expression level in MDA-MB-468 cells: IL-1β", "type": "cell-based, human", "details": "compared to the control (untreated) cells"}, "prostate cancer (PC3)": {"system": "prostate cancer (PC3)", "test": "Antitumor activity (growth inhibition) against PC3", "type": "cell-based", "details": "Homo sapiens, 100 μg/mL, read-out: growth inhibition percentage"}, "p53": {"system": "p53", "test": "Protein expression level in MDA-MB-468 cells: p53", "type": "cell-based, human", "details": "in comparison to the control (untreated) cells"}, "COX-2": {"system": "COX-2", "test": "Protein expression level in MDA-MB-468 cells: COX-2", "type": "cell-based, human", "details": "compared to the control (untreated) cells"}, "[6]": {"details": "read-out: cytotoxic inhibitory concentration 50 (IC50)"}}, "data": [{"smiles": "N#C[Se]CCCN1C(=O)c2ccccc2C1=O", "note": "[DS128, 2-(3-selenocyanatopropyl) isoindoline-1,3-dione]", "values": [{"measurement": "downregulation of BCL-2 protein", "setting": "BCL-2", "result": 0.44, "unit": "times"}, {"measurement": "growth inhibition percentage", "setting": "[1]", "result": 40.02, "unit": "%"}, {"measurement": "downregulation of IL-6", "setting": "IL-6", "result": 0.40, "unit": "times"}, {"measurement": "inhibition at 100 µg/mL", "setting": "[2]", "result": 83.8, "unit": "%"}, {"measurement": "IC50", "setting": "[2]; [6]", "result": 5.46, "unit": "µg/mL"}, {"measurement": "upregulation of Caspase 6 protein", "setting": "Caspase 6", "result": 2.46, "unit": "times"}, {"measurement": "inhibition at 100 µg/mL", "setting": "[3]", "result": 86, "unit": "%"}, {"measurement": "IC50", "setting": "[3]; [6]", "result": 4.33, "unit": "µg/mL"}, {"measurement": "upregulation of Caspase 3 protein", "setting": "Caspase 3", "result": 1.27, "unit": "times"}, {"measurement": "downregulation of MMP2 protein", "setting": "MMP2", "result": 0.43, "unit": "times"}, {"measurement": "upregulation of BAX protein", "setting": "BAX", "result": 1.68, "unit": "times"}, {"measurement": "upregulation of Caspase 9 protein", "setting": "Caspase 9", "result": 2.00, "unit": "times"}, {"measurement": "inhibition at 100 µg/mL", "setting": "cervical cancer (HeLa)", "result": 75.1, "unit": "%"}, {"measurement": "IC50", "setting": "cervical cancer (HeLa); [6]", "result": 5.36, "unit": "µg/mL"}, {"measurement": "inhibition at 100 µg/mL", "setting": "[4]", "result": 77.7, "unit": "%"}, {"measurement": "IC50", "setting": "[4]; [6]", "result": 5.4, "unit": "µg/mL"}, {"measurement": "upregulation of Caspase 8 protein", "setting": "Caspase 8", "result": 6.71, "unit": "times"}, {"measurement": "downregulation of MMP9 protein", "setting": "MMP9", "result": 0.47, "unit": "times"}, {"measurement": "inhibition at 100 µg/mL", "setting": "[5]", "result": 78.5, "unit": "%"}, {"measurement": "downregulation of IL-1β", "setting": "IL-1β", "result": 0.42, "unit": "times"}, {"measurement": "inhibition at 100 µg/mL", "setting": "prostate cancer (PC3)", "result": 83.2, "unit": "%"}, {"measurement": "upregulation of p53 protein", "setting": "p53", "result": 1.77, "unit": "times"}, {"measurement": "downregulation of COX-2", "setting": "COX-2", "result": 0.48, "unit": "times"}]}, {"smiles": "COc1cccc2c1C(=O)c1c(O)c3c(c(O)c1C2=O)C[C@@](O)(C(=O)CO)C[C@@H]3O[C@H]1C[C@H](N)[C@H](O)[C@H](C)O1", "note": "[doxorubicin, reference compound]", "values": [{"measurement": "growth inhibition percentage", "setting": "[1]", "result": 57.89, "unit": "%"}, {"measurement": "inhibition at 100 µg/mL", "setting": "[2]", "result": 92.9, "unit": "%"}, {"measurement": "inhibition at 100 µg/mL", "setting": "[3]", "result": 96, "unit": "%"}, {"measurement": "inhibition at 100 µg/mL", "setting": "cervical cancer (HeLa)", "result": 92.7, "unit": "%"}, {"measurement": "inhibition at 100 µg/mL", "setting": "[4]", "result": 86.4, "unit": "%"}, {"measurement": "inhibition at 100 µg/mL", "setting": "[5]", "result": 71, "unit": "%"}, {"measurement": "inhibition at 100 µg/mL", "setting": "prostate cancer (PC3)", "result": 89.9, "unit": "%"}]}]}
